ChEMBL document CHEMBL1125959, “Synthesis and DNA binding properties of an amidine-linked and phenyl-containing analogue of distamycin A” (Bioorg Med Chem Lett, 1991)

What was measured:
Nucleic Acid [1] = test: The apparent DNA binding constant to bind with calf thymus DNA was determined by ethidium displacement assay; type: nucleic-acid assay; conditions: Bos taurus
Nucleic Acid [2] = test: The apparent DNA binding constant to bind with T4 DNA was determined by ethidium displacement assay; type: nucleic-acid assay

K app (Nucleic Acid [1])	K app (Nucleic Acid [2])	Compound
65000 M⁻¹	120000 M⁻¹	CN(C)CC/N=C(\N)c1cccc(NC(=O)c2cccc(NC=O)c2)c1
770000 M⁻¹	–	Cn1cc(NC(=O)c2cc(NC(=O)c3cc(NC=O)cn3C)cn2C)cc1C(=O)NCCC(=N)N
